Measured values reported in patent US7576198B1, “Integrase inhibitors containing aromatic heterocycle derivatives” (Shionogi & Co., Ltd., priority 1999, dated 2009).

target: HIV-1 integrase (Human immunodeficiency virus type 1 group M subtype B, UniProt P04585); assay: HIV-1 integrase inhibition assay (microtiter plate, substrate DNA/target DNA, OD 405 nm); assay type: biochemical; details: HIV-1 integrase; concentration of the compound at percent inhibition 50%; OD 405 nm
Description: The inhibitory effects of the compounds of the present invention for HIV-1 integrase have been determined by the assay described below.
(1) Preparation of DNA solutions.
Substrate DNA and target DNA, which sequences were indicated below, were synthesized by Amersham Pharmacia Biotech and dissolved in KTE buffer (composition: 100 mM KCl, 1 mM EDTA, 10 mM Tris-HCl (pH 7.6)) at concentration of 2 pmol/μl and 5 pmol/μl, respectively. The DNA solutions were annealed with each complement by slowly cooling after heating.
(Substrate DNA) • 5′-Biotin-ACCCTTTTAGTCAGTGTGGAAAATCTCTAGCAGT-3′ • 3-GAAAATCAGTCACACCTTTTAGAGATCGTCA-5′
5′-TGACCAAGGGCTAATTCACT-Dig-3′
3′-Dig-ACTGGTTCCCGATTAAGTGA-5′
(2) Calculations of the percent inhibitions (the IC50 values of test compounds)
Streptavidin, obtained from Vector Laboratories, was dissolved in 0.1 M carbonate buffer (composition: 90 mM Na2CO3, 10 mM NaHCO3) at concentration of 40 μg/ml. After coating each well of microtiter plates (obtained from NUNC) with 50 μl of the above solution at 4° C. over night, each well was washed twice with PBS (composition: […], 0.27 mM KCl, 0.43 mM Na2HPO4, 0.14 mM KH2PO4) and blocked with 300 μl of 1% skim milk in PBS for 30 min. Additionally, each well was washed twice with PBS and added 50 μl of substrate DNA solution (2 pmol/μl). The microtiter plates were kept at room temperature for 30 min. Then, each well was washed twice with PBS and once with H2O.
Subsequently, in the each well prepared above were added 45 μl of the reaction buffer prepared from 12 μl of the buffer (composition: 150 mM MOPS (pH 7.2), 75 mM MnCl2, 50 mM 2-mercaptoethanol, 25% glycerol, 500 μg/ml bovine serum albumin-fraction V), 1 μl of target DNA (5 pmol/μl), and 32 μl of the distilled water. Additionally, 6 μl of either a test compound in DMSO or DMSO for positive control (PC) was mixed with the above reaction buffer, then 9 μl of an integrase solution (30 pmol) was added and mixed well. In the well of negative control (NC) was added 9 μl of the integrase dilution buffer (composition: 20 mM MOPS (pH7.2), 400 mM potassium glutamate, 1 mM EDTA, 0.1% NP-40, 20% glycerol, 1 mM DTT, 4M urea).
The microtiter plates were incubated at 30° C. for 1 hour. The reaction solution was removed and each well was washed twice with PBS. Subsequently, each well of the microtiter plates was filled with 100 μl of anti-digoxigenin antibody labeled with alkaline phosphatase (Sheep Fab fragment: obtained from Boehringer) and incubated at 30° C. for 1 hour. Then, each well was washed twice with 0.05% Tween20 in PBS and once with PBS. Next, 150 μl of the Alkaline phosphatase reaction buffer (composition: 10 mM p-Nitrophenylphosphate (obtained from Vector Laboratories), 5 mM MgCl2, 100 mM NaCl, 100 mM Tris-HCl (pH 9.5)) was added in each well. The microtiter plates were incubated at 30° C. for 2 hours and the reaction was terminated by the addition of 50 μl of 1 N NaOH solution. The optical density (OD) at 405 nm of each well was measured and the percent inhibition was determined by the following expression. The percent inhibition (%)=100[1−{(C abs.−NC abs.)/(PC abs.−NC abs.)}] • C abs.; the OD of the well of the compounds • NC abs. the OD of the negative control (NC) • PC abs.: the OD of the positive control (PC)
The following Compounds (X-1 to 3) were used in order to compare an activity of the present compound with that of the compounds (X-1 to 3). Compound No. in the Table 1 is the same as compound No. of the above example.

SMILES	IC50
O=C(O)C(=O)c1c(F)ccc(COc2ccc(C=C(O)C(=O)O)nc2)c1F [Compound I-17, 3-[5-(3-Carboxyoxalyl-2,4-difluorobenzyloxy)-pyridin-2-yl]-2-hydroxy acrylic acid]	3.4 µg/mL

same assay, conditions: HIV-1 integrase; concentration of the compound at percent inhibition 50%; OD 405 nm; read-out: IC50 (μg/ml) (converted)

SMILES	IC50
O=C(O)/C(O)=C/c1ccc2ccccc2c1 [Compound X-2, reference compound]	> 467000 nM
O=C(O)/C(O)=C/c1ccc(OCc2ccc(C(F)(F)F)cc2)cn1 [Compound I-49, 3-[5-(4-Trifluoromethylbenzyloxy)pyridin-2-yl]-2-hydroxy acrylic acid]	16500 nM
O=C(O)C(O)=Cc1ccc(OCc2ccc(F)cc2F)cn1 [Compound I-47, 3-[5-(2,4-Difluorobenzyloxy)pyridin-2-yl]-2-hydroxy acrylic acid]	1630 nM
O=C(O)C(O)=Cc1ccc(OCc2ccccc2)cn1 [Compound I-3, 3-(5-Benzyloxypyridin-2-yl)-2-hydroxy acrylic acid]	1140 nM
COc1cc(/C=C(\O)C(=O)O)ccc1OCc1ccccc1 [Compound X-1, reference compound]	> 333000 nM
OC(=Cc1ccc(OCc2ccccc2)cn1)c1nccs1 [Compound I-15, 2-(5-Benzyloxypyridin-2-yl)-1-thiazol-2-yl ethenol]	10200 nM
O=C(O)/C(O)=C/c1nnc(CCc2ccccc2)s1 [Compound I-35, 3-[5-(2-Phenylethyl)[1,3,4]thiadiazol-2-yl)-2-hydroxy acrylic acid]	1590 nM
O=C(O)/C(O)=C/c1ccc(OCc2ccccc2)cc1 [Compound X-3, reference compound]	> 370000 nM
CCOC(=O)C(O)=Cc1cc(CCc2ccccc2)ncn1 [Compound I-24, 3-[6-(2-Phenylethyl)pyrimidin-4-yl)-2-hydroxy acrylic acid ethyl ester]	1010 nM
CCOC(=O)C(O)=Cc1ccc(OCc2ccccc2)cn1 [Compound I-2, 3-(5-Benzyloxypyridin-2-yl)-2-hydroxy acrylic acid ethyl ester]	1770 nM
CC(C)CCOc1ccc(/C=C(\O)C(=O)O)nc1 [Compound I-9, 3-(5-Isopentoxypyridin-2-yl)-2-hydroxy acrylic acid]	11500 nM
CCOC(=O)C(O)=Cc1ccc(OCc2ccc(F)cc2F)cn1 [Compound I-46, 3-[5-(2,4-Difluorobenzyloxy)pyridin-2-yl]-2-hydroxy acrylic acid ethyl ester]	1640 nM
O=C(O)/C(O)=C/c1ccc(OCC2CCCCC2)cn1 [Compound I-7, 3-[5-(Cyclohexylmethoxy)pyridin-2-yl]-2-hydroxy acrylic acid]	4690 nM
O=C(O)C(O)=Cc1cc(CCc2ccccc2)ncn1 [Compound I-25, 3-[6-(2-Phenylethyl)pyrimidin-4-yl)-2-hydroxy acrylic acid]	481 nM
OC(=Cc1ccc(OCc2ccccc2)cn1)c1nc[nH]n1 [Compound I-14, 2-(5-Benzyloxypyridin-2-yl)-1-(1H-[1,2,4]triazol-3-yl) ethenol]	3230 nM
O=C(O)/C(O)=C/c1cnc(CCc2ccccc2)cn1 [Compound I-27, 3-[5-(2-Phenylethyl)pyradin-2-yl]-2-hydroxy acrylic acid]	2520 nM

same assay, conditions: besides the compounds of the IC50 table

SMILES	inhibitory effect for HIV-1 integrase, stated in words (compound having high activity)
O/C(=C\c1cc(CCc2ccccc2)ncn1)c1ncccn1 [Compound I-110]	high activity
O/C(=C\c1cc(CCc2ccc(F)cc2)ncn1)c1ncccn1 [Compound I-109]	high activity
Cc1cc(/C(O)=C/c2cc(CCc3ccccc3)ncn2)no1 [Compound I-103]	high activity
O=C(O)/C(O)=C/c1ncc(CCc2ccccc2)s1 [Compound I-119]	high activity
O/C(=C\c1cc(CCc2ccccc2)ncn1)c1ccccn1 [Compound I-111]	high activity
O=C(O)c1ccc(/C(O)=C/c2cc(CCc3ccccc3)ncn2)nc1 [Compound I-114]	high activity
O=C(O)/C(O)=C/c1cc(C(F)Cc2ccccc2)ncn1 (stereo not shown) [Compound I-115]	high activity
O=C(O)/C(O)=C/c1ncc(CCc2ccccc2)o1 [Compound I-117]	high activity
